Values joined by “and” are separate entries in the source; they are usually repeats but may differ in a detail not shown here. Identical values can stand only once.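 These data come from cells grown in 96-well plates and exposed to compound for 48 hours at five concentrations. Abbreviation: GI50, concentration required for 50% inhibition of growth. TGI: total growth inhibition.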
What was measured:
Experiment in all cases: growth of human tumour cells (NCI), 48 h
[1] = tested on: A498 renal
[2] = tested on: BT-549 breast
[3] = tested on: CAKI-1 renal
[4] = tested on: DU-145 prostate
[5] = tested on: HOP-92 NSCLC
[6] = tested on: MDA-MB-435
[7] = tested on: NCI-H460 lung
[8] = tested on: OVCAR-4 ovarian
[9] = tested on: OVCAR-8 ovarian
[10] = tested on: PC-3 prostate
[11] = tested on: SF-539 CNS
[12] = tested on: SK-OV-3 ovarian
[13] = tested on: SNB-75 CNS
[14] = tested on: SW-620 colon
[15] = tested on: UACC-62 melanoma
[16] = tested on: UO-31 renal
[17] = tested on: 786-0 renal
[18] = tested on: ACHN renal
[19] = tested on: CCRF-CEM leukemia
[20] = tested on: COLO 205 colon
[21] = tested on: HCC-2998 colon
[22] = tested on: HCT-116 colon
[23] = tested on: HCT-15 colon
[24] = tested on: HL-60(TB) leukemia
[25] = tested on: HT29 colon
[26] = tested on: IGROV1 ovarian
[27] = tested on: KM12 colon
[28] = tested on: M14 melanoma
[29] = tested on: MALME-3M melanoma
[30] = tested on: MDA-MB-231 breast
[31] = tested on: NCI-H226 lung
[32] = tested on: NCI-H23 lung
[33] = tested on: NCI-H522 lung
[34] = tested on: NCI/ADR-RES ovarian
[35] = tested on: OVCAR-3 ovarian
[36] = tested on: OVCAR-5 ovarian
[37] = tested on: RPMI-8226 leukemia
[38] = tested on: RXF 393 renal
[39] = tested on: SF-268 CNS
[40] = tested on: SF-295 CNS
[41] = tested on: SK-MEL-2 melanoma
[42] = tested on: SK-MEL-28 melanoma
[43] = tested on: SK-MEL-5 melanoma
[44] = tested on: SN12C renal
[45] = tested on: UACC-257 melanoma
[46] = tested on: A549 NSCLC
[47] = tested on: EKVX NSCLC
[48] = tested on: SNB-19 CNS
[49] = tested on: TK-10 renal
[50] = tested on: U251 CNS

Question: Which results are given for `C=C(CNCCc1ccc(O)cc1)[C@@H]1CC[C@]2(CO)CC[C@]3(C)[C@H](CC[C@@H]4[C@@]5(C)CCC(NCCc6ccc(O)cc6)C(C)(C)[C@@H]5CC[C@]43C)[C@@H]12` (some centres undefined)?
Answer: GI50 [1]: 1400 nM; TGI [1]: 2860 nM; GI50 [2]: 1590 nM; TGI [2]: 3060 nM; GI50 [3]: 1490 nM; TGI [3]: 2850 nM; GI50 [4]: 1540 nM; TGI [4]: 3000 nM; GI50 [5]: 667 nM; TGI [5]: 2180 nM; GI50 [6]: 873 nM; TGI [6]: 2240 nM; GI50 [7]: 191 nM; TGI [7]: 362 nM; GI50 [8]: 1350 nM; TGI [8]: 2700 nM; GI50 [9]: 1610 nM; TGI [9]: 4270 nM; GI50 [10]: 884 nM; TGI [10]: 2350 nM; GI50 [11]: 1310 nM; TGI [11]: 2600 nM; GI50 [12]: 1770 nM; TGI [12]: 3260 nM; GI50 [13]: 1250 nM; TGI [13]: 2540 nM; GI50 [14]: 178 nM; TGI [14]: 352 nM; GI50 [15]: 1720 nM; TGI [15]: 3260 nM; GI50 [16]: 1160 nM; TGI [16]: 2440 nM

Question: With `O=c1c2cc(F)ccc2sc2c(Nc3ccncc3)nc3ccccc3c12` as the compound, how does the GI50 [17] read?
Answer: 1760 nM

Question: What about the TGI [17] of the same compound?
Answer: 3390 nM

Question: What about the GI50 [1] of the same compound?
Answer: 1040 nM

Question: And the TGI [1]?
Answer: 2640 nM

Question: And the GI50 [18]?
Answer: 1550 nM

Question: What about the TGI [18] of the same compound?
Answer: 3130 nM

Question: What about the GI50 [2] of the same compound?
Answer: 3310 nM

Question: What about the TGI [2] of the same compound?
Answer: 16700 nM

Question: And the GI50 [3]?
Answer: 1530 nM

Question: And the TGI [3]?
Answer: 3840 nM

Question: And the GI50 [19]?
Answer: 860 nM

Question: And the TGI [19]?
Answer: 2920 nM

Question: What about the GI50 [20] of the same compound?
Answer: 1700 nM

Question: What about the TGI [20] of the same compound?
Answer: 3940 nM

Question: And the GI50 [4]?
Answer: 2490 nM

Question: What about the TGI [4] of the same compound?
Answer: 6270 nM

Question: What about the GI50 [21] of the same compound?
Answer: 2670 nM

Question: What about the TGI [21] of the same compound?
Answer: 7970 nM

Question: And the GI50 [22]?
Answer: 1450 nM

Question: And the TGI [22]?
Answer: 3130 nM

Question: And the GI50 [23]?
Answer: 1650 nM

Question: And the TGI [23]?
Answer: 3320 nM

Question: And the GI50 [24]?
Answer: 13700 nM

Question: What about the TGI [24] of the same compound?
Answer: 39800 nM

Question: And the GI50 [25]?
Answer: 1880 nM

Question: What about the TGI [25] of the same compound?
Answer: 3730 nM

Question: And the GI50 [26]?
Answer: 1550 nM

Question: And the TGI [26]?
Answer: 5550 nM

Question: And the GI50 [27]?
Answer: 1870 nM

Question: What about the TGI [27] of the same compound?
Answer: 3930 nM

Question: And the GI50 [28]?
Answer: 1570 nM

Question: What about the TGI [28] of the same compound?
Answer: 3010 nM

Question: And the GI50 [29]?
Answer: 1740 nM

Question: What about the TGI [29] of the same compound?
Answer: 3420 nM

Question: What about the GI50 [30] of the same compound?
Answer: 1300 nM

Question: And the TGI [30]?
Answer: 2670 nM

Question: What about the GI50 [6] of the same compound?
Answer: 1900 nM

Question: What about the TGI [6] of the same compound?
Answer: 3670 nM

Question: And the GI50 [31]?
Answer: 14500 nM

Question: What about the TGI [31] of the same compound?
Answer: 47800 nM

Question: And the GI50 [32]?
Answer: 1710 nM

Question: What about the TGI [32] of the same compound?
Answer: 3800 nM

Question: And the GI50 [7]?
Answer: 1770 nM

Question: What about the TGI [7] of the same compound?
Answer: 3620 nM

Question: And the GI50 [33]?
Answer: 1910 nM

Question: And the TGI [33]?
Answer: 4820 nM

Question: And the GI50 [34]?
Answer: 1940 nM

Question: And the TGI [34]?
Answer: 4470 nM

Question: And the GI50 [35]?
Answer: 1840 nM

Question: What about the TGI [35] of the same compound?
Answer: 3880 nM

Question: And the GI50 [8]?
Answer: 1700 nM

Question: What about the TGI [8] of the same compound?
Answer: 3530 nM

Question: And the GI50 [36]?
Answer: 1660 nM

Question: And the TGI [36]?
Answer: 3110 nM

Question: What about the GI50 [9] of the same compound?
Answer: 1780 nM

Question: What about the TGI [9] of the same compound?
Answer: 4250 nM

Question: What about the GI50 [37] of the same compound?
Answer: 1750 nM

Question: And the TGI [37]?
Answer: 4430 nM

Question: What about the GI50 [38] of the same compound?
Answer: 1700 nM

Question: What about the TGI [38] of the same compound?
Answer: 3410 nM

Question: And the GI50 [39]?
Answer: 1910 nM

Question: What about the TGI [39] of the same compound?
Answer: 4560 nM

Question: What about the GI50 [40] of the same compound?
Answer: 4120 nM

Question: And the TGI [40]?
Answer: 26700 nM

Question: And the GI50 [11]?
Answer: 1720 nM

Question: And the TGI [11]?
Answer: 3290 nM

Question: And the GI50 [41]?
Answer: 11200 nM

Question: And the TGI [41]?
Answer: 26500 nM

Question: What about the GI50 [42] of the same compound?
Answer: 1990 nM

Question: What about the TGI [42] of the same compound?
Answer: 3840 nM

Question: What about the GI50 [43] of the same compound?
Answer: 7290 nM

Question: What about the TGI [43] of the same compound?
Answer: 28200 nM

Question: And the GI50 [12]?
Answer: 14200 nM

Question: And the TGI [12]?
Answer: 34400 nM

Question: And the GI50 [44]?
Answer: 2160 nM

Question: And the TGI [44]?
Answer: 5930 nM

Question: And the GI50 [13]?
Answer: 1100 nM

Question: And the TGI [13]?
Answer: 3640 nM

Question: What about the GI50 [14] of the same compound?
Answer: 1500 nM

Question: And the TGI [14]?
Answer: 3160 nM

Question: And the GI50 [45]?
Answer: 2340 nM

Question: And the TGI [45]?
Answer: 6170 nM

Question: What about the GI50 [15] of the same compound?
Answer: 1790 nM

Question: What about the TGI [15] of the same compound?
Answer: 3740 nM

Question: And the GI50 [16]?
Answer: 1110 nM

Question: And the TGI [16]?
Answer: 2500 nM

Question: Which results are given for `CCC1(c2ccc(N3C(=O)c4ccccc4C3=O)cc2)CCC(=O)NC1=O` (centres undefined)?
Answer: TGI [46]: > 10000 nM; TGI [18]: > 10000 nM; TGI [3]: > 10000 nM; TGI [20]: > 10000 nM; TGI [4]: > 10000 nM; TGI [47]: > 10000 nM; TGI [22]: > 10000 nM; TGI [23]: > 10000 nM; TGI [5]: > 10000 nM; TGI [25]: > 10000 nM; TGI [26]: > 10000 nM; TGI [27]: > 10000 nM; TGI [28]: > 10000 nM; TGI [30]: > 10000 nM; TGI [6]: > 10000 nM; TGI [31]: > 10000 nM; TGI [32]: > 10000 nM; TGI [34]: > 10000 nM; TGI [35]: > 10000 nM; TGI [8]: > 10000 nM; TGI [36]: > 10000 nM; TGI [9]: > 10000 nM; TGI [10]: > 10000 nM; TGI [38]: > 10000 nM; TGI [39]: > 10000 nM; TGI [40]: > 10000 nM; TGI [11]: > 10000 nM; TGI [42]: > 10000 nM; TGI [43]: > 10000 nM; TGI [44]: > 10000 nM; TGI [48]: > 10000 nM; TGI [13]: > 10000 nM; TGI [14]: > 10000 nM; TGI [49]: > 10000 nM; TGI [50]: > 10000 nM; TGI [16]: > 10000 nM

Question: What does the source list for `COc1ccc(CC2C(=O)NC(C)C(=O)N(C)C3C(=O)N(C)C(Cc4ccc(O)c(c4)Oc4ccc(cc4)C3O)C(=O)NC(C)C(=O)NC(C)C(=O)N2C)cc1` (centres undefined) (tested in a mixture with another compound)?
Answer: TGI [2]: 9.92 nM; TGI [5]: 37.2 nM; TGI [31]: 117 nM; TGI [32]: 51 nM; TGI [45]: 101 nM and 27.8 nM
